What was measured:
Type in all cases: cell-based
GT2a-3a-S52 replicon = test: Stable replicon assay, comparison to daclatasvir, GT2a-3a-S52; settings: Hepatitis C virus
Description: (§1) The plasmid pSG-hRlucNeo-JFH1 was generated from pSG-Neo-JFH1 (Kato et al. 2003, Gastroentrology 125:1808-1817). A fragment containing the JFH-1 5′ NTR-hRluc-Neo gene and two unique restriction sites (AgeI and PmeI) was synthesized (Integrated DNA Technologies, Coralville, Iowa). The resulting plasmid was digested with AgeI and PmeI and the excised fragment (5′NTR-hRluc-Neo) was ligated into pSG-Neo-JFH1 digested with the same enzymes to generate pSG-hRlucNeo-JFH1. To allow expression of heterologous NS5A sequences, an NS5A shuttle vector was generated from pSG-Neo-JFH1, in which the entire coding sequence of NS5A plus the first eight codons of NS5B were replaced with an AfeI restriction site. This was done by Infusion cloning (Clontech, Mountain View, Calif.) from two PCR products that were generated using pSG-Neo-JFH1 as a template and the following primer pairs: […]
(§2) Stable HCV replicon cell lines were grown in complete media (Dulbecco's modified Eagle medium [DMEM], 2 mM L-glutamine, 0.1 mM essential amino acids, 1 mM sodium pyruvate, 10% fetal bovine serum) with the addition 500 μg/ml […] (G418). […] For stable and transient replicon assays, luciferase activity of compound-treated cells was measured relative to DMSO-treated cells after 72 h incubation using RENILLA-GLO™ Luciferase Assay (Promega). […]

[1] = tested on: HCV genotype 1a replicon, NS5A K24N Q30R; test: Transient replication assay, GT1a NS5A K24N Q30R; settings: Hepatitis C virus
[2] = tested on: HCV genotype 1a replicon, NS5A L31V; test: Transient replication assay, GT1a NS5A L31V; settings: Hepatitis C virus
GT2a-5a-SA13 replicon = test: Stable replicon assay, comparison to daclatasvir, GT2a-5a-SA13; settings: Hepatitis C virus
Description: as §1, §2

GT2a-2b-MD2b replicon = test: Stable replicon assay, comparison to daclatasvir, GT2a-2b-MD2b; settings: Hepatitis C virus
Description: as §1, §2

[3] = tested on: HCV genotype 1a replicon, NS5A L31M; test: Transient replication assay, GT1a NS5A L31M; settings: Hepatitis C virus
[4] = tested on: HCV genotype 1a replicon, NS5A K24G; test: Transient replication assay, GT1a NS5A K24G; settings: Hepatitis C virus
GT1b-Con1 replicon = test: Stable replicon assay, comparison to daclatasvir, GT1b-Con1; settings: Hepatitis C virus; Replicon GT1b-Con1, NS5A genotype 1b
Experimental: Stable HCV replicon cell lines were grown in complete media (Dulbecco's modified Eagle medium [DMEM], 2 mM L-glutamine, 0.1 mM essential amino acids, 1 mM sodium pyruvate, 10% fetal bovine serum) with the addition 500 μg/ml […] (G418). Huh7-lunet cells were maintained in the same medium without the addition of G418. Cells were routinely passaged at a dilution of 1:5 two times per week. For stable replicon assays (GT1a-H77, GT1b-Con1, GT2a-JFH, GT2a-J6, GT2a-2b-MD2b, GT2a-2b-J8, GT2a-3a-S52, GT3a-552, GT4a-ED43, GT2a-5a-SA13, GT2a-6a-EUKH2, GT2a-6a-HK6a, and GT2a-7a-QC69), an 8-point 3-fold or half-log dilution series of compound was transferred into three replica 96-well plates containing 1×10^4 cells per well in phenol red-free complete media without G418. For the transient replication assay, Huh7-lunet cells in ice-cold phosphate buffered saline (PBS) were electroporated (Bio-Rad Gene pulser: 950 uF, 270V) with 10 μg purified in vitro transcribed HCV replicon RNA, followed by resuspension in phenol red-free complete media without G418 and plating (1×10^4 cells in 200 μL media/well) into three replica 96-well plates prior to compound addition (1 μl compound per well). For stable and transient replicon assays, luciferase activity of compound-treated cells was measured relative to DMSO-treated cells after 72 h incubation using RENILLA-GLO™ Luciferase Assay (Promega). […]

SMILES | EC50 (GT2a-3a-S52 replicon) | EC50 [1] | EC50 [2] | EC50 (GT2a-5a-SA13 replicon) | EC50 (GT2a-2b-MD2b replicon) | EC50 [3] | EC50 [4] | EC50 (GT1b-Con1 replicon)
COC(=O)N[C@H](C(=O)N1C[C@]2(CCCOC2)C[C@H]1c1ncc(-c2ccc(-c3ccc4c(ccc5nc([C@@H]6C[C@@H]7CCC[C@@H]7N6C(=O)[C@@H](NC(=O)OC)C(C)C)[nH]c54)c3)cc2)[nH]1)C(C)C [Compound 16] | 540 pM | 1200 pM | 150 pM | 5 pM | 21000 pM | 10.6 pM | 2.1 pM | 8 pM
COC(=O)N[C@H](C(=O)N1CCC[C@H]1c1nc(-c2ccc(-c3ccc(-c4c[nH]c([C@@H]5CCCN5C(=O)[C@@H](NC(=O)OC)C(C)C)n4)cc3)cc2)c[nH]1)C(C)C [Daclatasvir, reference compound] | 390 pM | 8000 pM | 4500 pM | 9 pM | 33000 pM | 670 pM | 20 pM | 20 pM
